US4857652A, “Chemiluminescent 1,2-dioxetane compounds” (priority 1988, dated 1989)
Read-outs that look alike come from different tables or passages of the source.

Key:
[1] = format: physicochemical; settings: for Ea (activation energy for decomposition) / k at 25° C.: in xylene
Description: Rates of dioxetane decomposition were monitored by the decay of chemiluminescence of aerated solutions. A cylindrical Pyrex vial equipped with magnet stir bar was filled with 3-4 mL of the reaction solvent, sealed with a Teflon-lined screw cap and placed in the thermostatted sample block of the chemiluminescence-measuring apparatus (Black Box). Temperature control was provided by an external circulating water bath. Appropriate values for the instrument gain and optical slit size were selected. […]. The vial was sealed with a Teflon-lined screw cap to prevent evaporation when high temperatures were used. Measurement of the signal was begun by opening the shutter. The chemiluminescent decay was generally recorded for at least three half-lives. Calculation of the first-order rate constant, k, from the In(Intensity) vs. time data was performed by a computer program utilizing a standard least-squares treatment. The correlation coefficient, r, was typically at least 0.999 and varied less than 5% between replicate samples. The observed rate was not measurably concentration dependent.
Activation parameters for decomposition of the dioxetanes were calculated from plots of In k.vs. 1/T (Arrhenius eq.) or In k/t vs. 1/T (Eyring eq.) by a standard least-squares linear regression analysis.

[2] = format: physicochemical; settings: for base-induced decomposition, chemiluminescence: room temperature
Description: (§1) A solution of the dioxetane in a suitable solvent (e.g. o-xylene) was placed in the reaction vial as described above. The vial was placed in the sample holder which was maintained at a temperature such that thermal decomposition of the dioxetane was negligible. Instrument parameters were selected as above and data collection started. A solution of the releasing agent (e.g. base or fluoride) preferably in the reaction solvent was injected by syringe into the rapidly stirred dioxetane solution. The volume of releasing agent added was generally less than 5% of the total volume so that temperature fluctuation of the sample during the time course of the decay was minimal. The pseudo-first order decay was monitored for at least three half-lives.
1. Triggering the Chemiluminescence of Hydroxy-Substituted Dioxetanes with Base: Potassium tert-butoxide induced decomposition of 2b. […].

[3] = format: physicochemical
Description: as §1
2. Triggering the Chemiluminescence of Silyloxy-Substituted Dioxetanes with Fluoride Ion: Fluoride ion induced decomposition of 2c. […]. […]. A spectrum of the chemiluminescence obtained from the fluoride triggering of 2c in 1:1 aqueous/2-methoxyethanol is shown in FIG. 1 with the solid line. The fluorescence of the cleavage product (methyl 6-hydroxy-2-naphthoate) from the dioxetane is also shown with the dashed line for comparison.

[4] = Triggering properties of further dioxetanes (general statement); format: physicochemical
Description: as §1

[5] = format: physicochemical; settings: 0.002M in 2-methoxyethanol, stored at 0° C.
Description: (§2) A secondary stock solution of the acetate-protected dioxetane 2e was made by evaporating an aliquot of the methylene chloride stock equivalent to 10 micromoles of dioxetane and dissolving in 5.0 mL of 2-methoxyethanol to give a final concentration of 0.002M. […] Buffer solutions prepared in distilled water were 0.05M phosphate pH 7.6 and 8.0, 0.02M Tris (tris-hydroxymethylaninomethane maleate) pH 7.6, and pH 9.0 phosphate/borate buffer. Aryl esterase (also called carboxylic ester hydrolase (P-5221)) from porcine liver was purchased from Sigma Chemical Co. as a suspension of 11 mg of protein per mL in 3.2M (NH4)2 SO4 solution pH 8.0. Each mg of protein is equivalent to 260 Units, where 1 Unit is defined as the amount which will hydrolyze 1 micromole of ethyl butyrate in 1 minute at pH 8.0, 25° C. […] Injection of 1 μL of […] of aryl esterase to the stirred solution caused a chemiluminescent signal to appear. The intensity reached a maximum at about 3 minutes and decayed over a 30 minute period.

[6] = target: T1, Acetylcholinesterase from human erythrocytes (Homo sapiens, UniProt P22303); experiment: Enzymatic triggering of chemiluminescence with acetylcholinesterase; format: biochemical; settings: 10 μL stock in 3 mL 0.05M phosphate buffer pH 8.0, 37.0° C.
T1 construct: purchased Sigma Chemical Co. C-3389; host or cells: human erythrocytes
T1 sequence (P22303 other isoform, or with tags, fused parts or gaps): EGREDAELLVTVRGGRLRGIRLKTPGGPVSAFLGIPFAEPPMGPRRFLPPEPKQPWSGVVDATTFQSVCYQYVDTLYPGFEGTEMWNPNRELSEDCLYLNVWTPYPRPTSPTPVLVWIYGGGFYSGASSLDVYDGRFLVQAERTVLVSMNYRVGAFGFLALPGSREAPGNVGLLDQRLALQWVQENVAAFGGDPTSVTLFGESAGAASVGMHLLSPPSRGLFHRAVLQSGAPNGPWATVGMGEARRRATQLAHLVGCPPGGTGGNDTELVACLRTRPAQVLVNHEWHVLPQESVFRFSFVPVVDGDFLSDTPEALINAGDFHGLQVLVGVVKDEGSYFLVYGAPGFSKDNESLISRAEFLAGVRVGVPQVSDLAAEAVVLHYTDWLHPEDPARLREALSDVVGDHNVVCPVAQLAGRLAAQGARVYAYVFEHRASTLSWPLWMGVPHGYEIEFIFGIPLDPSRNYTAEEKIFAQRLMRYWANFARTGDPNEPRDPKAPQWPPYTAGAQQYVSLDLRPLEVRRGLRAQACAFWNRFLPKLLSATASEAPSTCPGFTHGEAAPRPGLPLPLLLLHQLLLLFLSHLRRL
From the text: Acetylcholinesterase, an enzyme of considerable biological significance, hydrolyzes acetylcholine to choline and acetic acid under physiological conditions. It was of interest to determine whether this enzyme would also initiate the chemiluminescent decomposition of the acetyl-protected dioxetane 2e by removal of the acetyl group. Acetylcholinesterase (C-3389) from human erythrocytes was purchased from Sigma Chemical Co. as a lyophilized powder containing phosphate buffer salts. […]. Addition of more dioxetane during this period generated more light.

[7] = test system: Aryl esterase (carboxylic ester hydrolase) from porcine liver; experiment: Enzymatic triggering of chemiluminescence with aryl esterase; format: biochemical; settings: for effect of competing substrate on light intensity of 2e/esterase reaction: 10 μL of […] added at maximum emission, pH 7.6 phosphate buffer, 37° C.; for hydrolysis by the enzyme (UV spectroscopy): under the reaction conditions
Description: as §2
(3.) When distilled water was substituted for the Tris buffer, no chemiluminescence signal was observed, but on adding Tris buffer to this solution light emission similar to that above was produced. […] Addition of untreated enzyme preparation to this solution again produced light. […] The emission could be totally extinguished by addition of sufficient SDS. The decrease in light emission is not due to photophysical quenching of the excited state since thermal decomposition in the same solvent system at elevated temperatures results in readily detectable chemiluminescence.
This type of behavior explains the effect of the addition of the known esterase substrates α-naphthyl acetate and β-naphthyl acetate. […] A solution of 25 μL of the dioxetane stock (0.002M) in 3 mL of pH 7.6 phosphate buffer maintained at 37° C. was treated with 5 μL of the enzyme to initiate the chemiluminescence. At the point of maximum emission 10 μL of 0.011M solution of either α- or β-naphthyl acetate were added.

[8] = Stability of dioxetane in aqueous buffers (IMAX with delay before the enzyme was added); format: physicochemical
Description: Stability of Enzyme and Dioxetane to Reaction Conditions. Many dioxetanes are known to be destroyed via a non-luminescent pathway by acid catalyzed processes in aprotic solvents. Similarly, amines are also known to cause the catalytic destruction of dioxetanes via an electron-transfer process. The stability of the dioxetane to the aqueous buffers used in the enzyme reactions, especially Tris buffer, was a matter of concern. A series of experiments were performed to assess the stability of the dioxetane in these buffers over the expected time course of a typical run. A comparison was made between the maximum light intensity produced for a given buffer and temperature with delays of 0 and 30 minutes before the enzyme was added. If the dioxetane were decomposing in the buffer then IMAX of the run where the dioxetane was exposed to the buffer for 30 minutes would be lower provided the enzyme is not saturated. […] In 0.05M phosphate buffer, pH 7.6 at 25° C. and 37 ° C. the percent decrease in IMAX due to the 30 minute delay was, respectively, 0 and 7% while in 0.02M Tris buffer, pH 7.6 at 25° C. a 12% decrease was found and at 37° C. after a delay of one hour a 34% decrease occurred.

[9] = 0.3 μmol dioxetane, 0.26 units aryl esterase, pH 7.6 Tris buffer, 25° C.
[10] = compared with dioxetanes 2a-c and 2e
[11] = polar aprotic solvents such as acetonitrile

COC1(c2ccc3ccccc3c2)OOC12C1CC3CC(C1)CC2C3 (centres unmarked) [Dioxetane 2a, 4-Methoxy-4-(2-naphthyl)spiro[1,2-dioxetane-3,2'-adamantane]]
Ea (activation energy for decomposition) [1]: 29.7 | k at 25° C. ([1]; 25° C.): 3.17e-09 s⁻¹

COC1(c2ccc3cc(O)ccc3c2)OOC12C1CC3CC(C1)CC2C3 (centres unmarked) [Dioxetane 2b, 4-(6-Hydroxy-2-naphthyl)-4-methoxyspiro[1,2-dioxetane-3,2'-adamantane]]
Ea (activation energy for decomposition) [1]: 29.7 | k at 25° C. ([1]; 25° C.): 3.83e-09 s⁻¹ | half-life of chemiluminescence decay, base triggered ([2]; 10^-4 M in o-xylene, potassium t-butoxide 0.005M, 25° C., 100 µM): approximately 20 seconds | base triggered chemiluminescence ([2]; in methanol with KOH or in o-xylene with n-BuLi): bright blue chemiluminescence with similar decay rates

COC1(c2ccc3cc(O[Si](C)(C)C(C)(C)C)ccc3c2)OOC12C1CC3CC(C1)CC2C3 (centres unmarked) [Dioxetane 2c]
half-life of chemiluminescence decay, fluoride triggered ([3]; 10^-4 M in 0.01M tetrabutylammonium fluoride in 2-methoxyethanol, room temperature, 100 µM): about 20 minutes | half-life of decomposition in the absence of fluoride ion ([1]; 25° C., no fluoride): 2.5 years | Ea (activation energy for decomposition) [1]: 27.0 | k at 25° C. ([1]; 25° C.): 8.72e-09 s⁻¹

COC1(c2ccc3cc(O[Si](c4ccccc4)(c4ccccc4)C(C)(C)C)ccc3c2)OOC12C1CC3CC(C1)CC2C3 (centres unmarked) [Dioxetane 2d]
chemiluminescence in polar aprotic solvents [3]: bright chemiluminescence | triggering properties [4]: triggering properties similar to dioxetanes 2a-c and 2e

COC1(c2ccc3cc(OC(C)=O)ccc3c2)OOC12C1CC3CC(C1)CC2C3 (centres unmarked) [Dioxetane 2e, 4-(6-Acetoxy-2-naphthyl)-4-methoxyspiro[1,2-dioxetane-3,2'-adamantane]]
stability of stock solution [5]: stable indefinitely | persistence of thermal chemiluminescence ([1]; aliquot in 3 mL o-xylene at 95° C.): persisted for several hours | duration of light emission [6]: 20 s | period of decay of chemiluminescence [7, 9]: 30 min | time at which intensity reached a maximum [7, 9]: about 3 minutes | maximum light intensity, IMAX, versus temperature ([7]; 1 μL enzyme, Tris buffer, 25°, 37° and 50° C.): increased with increasing temperature | chemiluminescence signal without enzyme ([7]; 150 μL stock in 3.0 mL pH 7.6 Tris buffer, 25° C., before enzyme): no chemiluminescence signal was detected | percent decrease in IMAX due to delay ([8]; 0.02M Tris buffer pH 7.6, 25° C., 30 minute delay): 12% | percent decrease in IMAX due to delay ([8]; 0.02M Tris buffer pH 7.6, 37° C., delay of one hour): 34% | percent decrease in IMAX due to delay ([8]; 0.05M phosphate buffer pH 7.6, 25° C., 30 minute delay): 0% | percent decrease in IMAX due to delay ([8]; 0.05M phosphate buffer pH 7.6, 37° C., 30 minute delay): 7%

Oc1ccc2c(c1)C1(OOC13C1CC4CC(C1)CC3C4)c1ccccc1-2 (centres unmarked) [Dioxetane 4a]
triggering properties [4, 10]: triggering properties similar to dioxetanes 2a-c and 2e | base-induced decomposition, chemiluminescence [2]: produced chemiluminescence at room temperature

CC(C)(C)[Si](C)(C)Oc1ccc2c(c1)C1(OOC13C1CC4CC(C1)CC3C4)c1ccccc1-2 (centres unmarked) [Dioxetane 4b, Dispiro[adamantane-2,3'-[1,2]dioxetane-4',9"-(2-tert-butyldimethylsilyloxy-9-fluorene)]]
chemiluminescence in polar aprotic solvents [3, 11]: bright chemiluminescence

Oc1ccc2c(c1)Oc1ccccc1C21OOC12C1CC3CC(C1)CC2C3 (centres unmarked) [Dioxetane 6a]
triggering properties [4, 10]: triggering properties similar to dioxetanes 2a-c and 2e | base-induced decomposition, chemiluminescence [2]: produced chemiluminescence at room temperature

CC(C)(C)[Si](C)(C)Oc1ccc2c(c1)Oc1ccccc1C21OOC12C1CC3CC(C1)CC2C3 (centres unmarked) [Dioxetane 6b]
chemiluminescence in polar aprotic solvents [3]: bright chemiluminescence | triggering properties [4]: triggering properties similar to dioxetanes 2a-c and 2e

CC(=O)Oc1ccc2c(c1)Oc1ccccc1C21OOC12C1CC3CC(C1)CC2C3 (centres unmarked) [Dioxetane 6c]
triggering properties [4, 10]: triggering properties similar to dioxetanes 2a-c and 2e

COC1(c2cccc(O)c2)OOC12C1CC3CC(C1)CC2C3 (centres unmarked) [Dioxetane 8a]
base-induced decomposition, chemiluminescence [2]: produced chemiluminescence at room temperature

COC1(c2cccc(O[Si](C)(C)C(C)(C)C)c2)OOC12C1CC3CC(C1)CC2C3 (centres unmarked) [Dioxetane 8b, 4-(3-tert-Butyldimethylsilyloxyphenyl)-4-methoxyspiro[1,2-dioxetane-3,2'-adamantane]]
chemiluminescence in polar aprotic solvents [3, 11]: bright chemiluminescence

CCCCCCCCCCCCOS(=O)(=O)[O-].[Na+] [sodium lauryl sulfate (SDS), sodium lauryl sulfate]
effect of enzyme inhibitor on light emission of 2e/esterase reaction ([7]; added at maximum emission, Tris buffer, 1.5 μL enzyme): irreversible decrease in the intensity

CC(=O)Oc1cccc2ccccc12 [α-naphthyl acetate]
effect of competing substrate on light intensity of 2e/esterase reaction [7]: rapid decrease in light intensity was noted followed by restoration of the original intensity within less than one minute | hydrolysis by the enzyme (UV spectroscopy) [7]: hydrolyzed by the enzyme in seconds

CC(=O)Oc1ccc2ccccc2c1 [β-naphthyl acetate]
effect of competing substrate on light intensity of 2e/esterase reaction [7]: rapid decrease in light intensity was noted followed by restoration of the original intensity within less than one minute | hydrolysis by the enzyme (UV spectroscopy) [7]: hydrolyzed by the enzyme in seconds
